Legend:
ΔF508-CFTR [1] = biological target: T1, ΔF508-CFTR (Homo sapiens, UniProt P13569, DEL508-508); assay: CFTR cell surface levels using HRP-tagged ΔF508-CFTR expressing CFBE cells, in the presence of a co-corrector; assay type: cell-based; conditions: HRP-tagged ΔF508-CFTR expressing CFBE cells, in the presence of 3 μM co-corrector; for EC50: read-out: EC50
T1 construct: host or cells: CFBE41o-, doxycycline-inducible
Procedure, shortened: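 Cells were seeded with 0.5 μg/mL doxycycline and held 68 h at 37 °C. Test compounds plus 3 μM co-corrector (final 0.1% DMSO) were then added for 20 h at 33 °C. Washed cells received HRP substrate, and luminescence was normalized between DMSO and 3 μM co-corrector controls.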

ΔF508-CFTR [2] = biological target: T1, ΔF508-CFTR; assay: CFTR cell surface levels using HRP-tagged ΔF508-CFTR expressing CFBE cells, intrinsic corrector capacity; assay type: cell-based; conditions: for EC50: read-out: EC50
Procedure, shortened: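 Here the cells express ΔF508-CFTR with horseradish peroxidase inserted in extracellular loop 4, so only rescued channel at the surface gives luminescent signal. Compounds act on their own, 20 h at the reduced temperature of 33 °C; values are percent activity relative to DMSO and a 3 μM corrector.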

[3] = HRP-tagged ΔF508-CFTR expressing CFBE cells, intrinsic corrector capacity (no co-corrector), 33° C., 20 hours
[4] = HRP-tagged ΔF508-CFTR CFBE41o- cells, compounds alone (intrinsic corrector capacity), 20 hours at 33° C., positive control 3 μM corrector
[5] = HRP-tagged ΔF508-CFTR CFBE41o- cells, compounds alone (intrinsic corrector capacity), 20 hours at 33° C.

T1 sequence (P13569 with tags, fused parts or gaps DEL508-508): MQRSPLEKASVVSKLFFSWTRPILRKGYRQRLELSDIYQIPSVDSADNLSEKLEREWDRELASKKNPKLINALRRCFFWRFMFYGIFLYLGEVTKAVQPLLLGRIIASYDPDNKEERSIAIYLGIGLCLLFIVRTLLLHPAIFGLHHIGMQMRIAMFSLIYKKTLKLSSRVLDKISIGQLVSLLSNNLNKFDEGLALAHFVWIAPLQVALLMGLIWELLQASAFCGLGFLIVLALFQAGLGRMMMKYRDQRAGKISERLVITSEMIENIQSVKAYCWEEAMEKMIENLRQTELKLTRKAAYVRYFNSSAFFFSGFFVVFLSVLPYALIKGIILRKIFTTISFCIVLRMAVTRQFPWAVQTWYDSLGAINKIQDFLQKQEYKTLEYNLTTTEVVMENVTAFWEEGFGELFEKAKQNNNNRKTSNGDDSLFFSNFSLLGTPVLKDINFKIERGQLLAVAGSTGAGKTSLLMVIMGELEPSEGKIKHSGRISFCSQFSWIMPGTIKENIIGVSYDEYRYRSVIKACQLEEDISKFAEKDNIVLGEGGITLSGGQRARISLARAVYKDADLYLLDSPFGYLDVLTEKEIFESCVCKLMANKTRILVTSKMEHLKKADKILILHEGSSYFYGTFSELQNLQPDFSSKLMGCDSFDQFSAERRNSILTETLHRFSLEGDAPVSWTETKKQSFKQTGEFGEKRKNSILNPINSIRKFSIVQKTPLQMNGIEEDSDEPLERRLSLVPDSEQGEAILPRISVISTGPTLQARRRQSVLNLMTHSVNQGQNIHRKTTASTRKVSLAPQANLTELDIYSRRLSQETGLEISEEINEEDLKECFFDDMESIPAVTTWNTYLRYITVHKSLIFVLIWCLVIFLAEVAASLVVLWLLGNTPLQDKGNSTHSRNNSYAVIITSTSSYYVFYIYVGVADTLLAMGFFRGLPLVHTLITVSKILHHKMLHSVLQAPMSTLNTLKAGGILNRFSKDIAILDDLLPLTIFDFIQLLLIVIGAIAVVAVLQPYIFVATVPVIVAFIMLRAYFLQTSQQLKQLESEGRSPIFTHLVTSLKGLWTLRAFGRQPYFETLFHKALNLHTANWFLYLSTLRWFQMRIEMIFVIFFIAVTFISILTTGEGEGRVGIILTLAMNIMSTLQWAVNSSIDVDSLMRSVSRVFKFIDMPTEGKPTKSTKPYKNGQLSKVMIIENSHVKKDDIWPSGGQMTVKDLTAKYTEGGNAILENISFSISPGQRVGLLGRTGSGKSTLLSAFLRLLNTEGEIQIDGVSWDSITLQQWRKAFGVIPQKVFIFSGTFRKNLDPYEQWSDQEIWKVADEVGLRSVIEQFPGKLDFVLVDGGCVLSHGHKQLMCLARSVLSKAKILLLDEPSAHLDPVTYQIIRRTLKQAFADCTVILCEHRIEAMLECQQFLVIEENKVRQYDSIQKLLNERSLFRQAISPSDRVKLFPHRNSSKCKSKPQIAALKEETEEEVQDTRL

SMILES | % Activation (ΔF508-CFTR [1]) | EC50 (ΔF508-CFTR [1]) | % Activation (ΔF508-CFTR [2]; [3]) | EC50 (ΔF508-CFTR [2]; [3]) | % Activation (ΔF508-CFTR [2]; [4]) | EC50 (ΔF508-CFTR [2]; [5])
O=C(O)c1cc(N2CCN3C[C@H](O)C[C@H]3C2)c2c(C3CCC3)nn(-c3ccccc3)c2n1 [compound 475, 3-cyclobutyl-4-[(7R,8aS)-7-hydroxyhexahydropyrrolo[1,2-a]pyrazin-2(1H)-yl]-1-phenyl-1H-pyrazolo[3,4-b]pyridine-6-carboxylic acid] | 163.35% | 2.72 µM | 35.755% | 6.67 µM |  | 
CC(C)c1nn(C2CCCCC2)c2nc(C(=O)O)cc(-c3cnc(N4CCCC(C#N)C4)nc3)c12 (centres unmarked) [compound 366, 4-[2-(3-cyanopiperidin-1-yl)pyrimidin-5-yl]-1-cyclohexyl-3-(propan-2-yl)-1H-pyrazolo[3,4-b]pyridine-6-carboxylic acid] | 385.85% | 0.602 µM |  |  | 199.1% | 0.436 µM
CC(C)c1nn(-c2ccc(F)cc2)c2nc(C(=O)O)cc(N3CCC(C)(N4CCCCC4)CC3)c12 [compound 784, 1-(4-fluorophenyl)-4-(4′-methyl [1,4′-bipiperidin]-1′-yl)-3-(propan-2-yl)-1H-pyrazolo[3,4-b]pyridine-6-carboxylic acid] | 225.6% | 1.67 µM | 38.94% | 1.22 µM |  | 
COCC1CCN(c2cc(C(=O)O)nc3c2c(C(C)C)nn3-c2cccc(N(C)C)c2)CC1 [compound 368, 1-[3-(dimethylamino)phenyl]-4-[4-(methoxymethyl)piperidin-1-yl]-3-(propan-2-yl)-1H-pyrazolo[3,4-b]pyridine-6-carboxylic acid] | 515.5% | 0.29 µM |  |  | 357.3% | 0.521 µM
O=C(O)c1cc(N2CC[C@@H](N3CCOCC3)C2)c2c(C3CCC3)nn(-c3ccccc3)c2n1 [compound 577, 3-cyclobutyl-4-[(3R)-3-(morpholin-4-yl)pyrrolidin-1-yl]-1-phenyl-1H-pyrazolo[3,4-b]pyridine-6-carboxylic acid] | 300.47% | 1.15 µM | 108% | 3.03 µM |  | 
Cc1nn(-c2ccccc2)c2nc(C(=O)O)cc(N3CCC([C@H](F)CN(C)C)CC3)c12 [compound 314, 4-{4-[(1S)-2-(dimethylamino)-1-fluoroethyl]piperidin-1-yl}-3-methyl-1-phenyl-1H-pyrazolo[3,4-b]pyridine-6-carboxylic acid] | 250.1% | 2.51 µM |  |  | 92.46% | 2.51 µM
CC(C)c1nn(-c2ccc(F)cc2)c2nc(C(=O)O)cc(N3CCN(C(=O)N(C)C)CC3)c12 [compound 774, 4-[4-(dimethylcarbamoyl)piperazin-1-yl]-1-(4-fluorophenyl)-3-(propan-2-yl)-1H-pyrazolo[3,4-b]pyridine-6-carboxylic acid] | 375.6% | 1.67 µM | 163% | 1.67 µM |  | 
O=C(O)c1cc(N2CC3(CCCCC3)C2)c2c(C3CCC3)nn(-c3ccccc3)c2n1 [compound 409, 4-(2-azaspiro[3.5]nonan-2-yl)-3-cyclobutyl-1-phenyl-1H-pyrazolo[3,4-b]pyridine-6-carboxylic acid] | 249.3% | 1.11 µM | 75.39% | 1.07 µM |  | 
O=C(O)c1cc(N2CCN(CC(=O)N3CCCC3)CC2)c2c(C3CCC3)nn(-c3ccccc3)c2n1 [compound 472, 3-cyclobutyl-4-{4-[2-oxo-2-(pyrrolidin-1-yl)ethyl]piperazin-1-yl}-1-phenyl-1H-pyrazolo[3,4-b]pyridine-6-carboxylic acid] | 292.55% | 1.38 µM | 144% | 2.49 µM |  | 
CCOCC1(F)CCN(c2cc(C(=O)O)nc3c2c(C2CCC2)nn3-c2ccccc2)CC1 [compound 461, 3-cyclobutyl-4-[4-(ethoxymethyl)-4-fluoropiperidin-1-yl]-1-phenyl-1H-pyrazolo[3,4-b]pyridine-6-carboxylic acid] | 328.05% | 0.343 µM | 158.55% | 0.818 µM |  | 
O=C(O)c1cc(N2CCC(F)CC2)c2c(C3CCC3)nn(-c3ccccc3)c2n1 [compound 444, 3-cyclobutyl-4-(4-fluoropiperidin-1-yl)-1-phenyl-1H-pyrazolo[3,4-b]pyridine-6-carboxylic acid] | 282.8% | 0.543 µM | 111.15% | 1.11 µM |  | 
Cc1nn(-c2ccccc2)c2nc(C(=O)O)cc(N3CCN(CC#N)CC3)c12 [compound 136, 4[4-(cyanomethyl)piperazin-1-yl]-3-methyl-1-phenyl-1H-pyrazolo[3,4-b]pyridine-6-carboxylic acid] | 189.95% | 3.34 µM |  |  | 40.405% | 3.34 µM
Cc1nn(-c2ccccc2)c2nc(C(=O)O)cc(OCC3CCCCC3)c12 [compound 152, 4-(cyclohexylmethoxy)-3-methyl-1-phenyl-1H-pyrazolo[3,4-b]pyridine-6-carboxylic acid] | 253.1% | 2.09 µM |  |  | 75.36% | 2.63 µM
O=C(O)c1cc(N2CC3(CCC3)C2)c2c(C3CCC3)nn(-c3ccccc3)c2n1 [compound 426, 4-(2-azaspiro[3.3]heptan-2-yl)-3-cyclobutyl-1-phenyl-1H-pyrazolo[3,4-b]pyridine-6-carboxylic acid] | 253.5% | 0.897 µM | 76.06% | 0.998 µM |  | 
COCC1(C)CN(c2cc(C(=O)O)nc3c2c(C2CCC2)nn3-c2ccccc2)C1 [compound 521, 3-cyclobutyl-4-[3-(methoxymethyl)-3-methylazetidin-1-yl]-1-phenyl-1H-pyrazolo[3,4-b]pyridine-6-carboxylic acid] | 216.55% | 0.29 µM | 58.57% | 0.488 µM |  | 
O=C(O)c1cc(N2CCC(CN3CC[C@H](F)C3)CC2)c2c(C3CCC3)nn(-c3ccccc3)c2n1 [compound 833, 3-cyclobutyl-4-(4-{[(3S)-3-fluoropyrrolidin-1-yl]methyl}piperidin-1-yl)-1-phenyl-1H-pyrazolo[3,4-b]pyridine-6-carboxylic acid] | 443.15% | 0.142 µM | 231.9% | 0.187 µM |  | 
O=C(O)c1cc(N2C[C@H](O)[C@@H](O)C2)c2c(C3CCC3)nn(-c3ccccc3)c2n1 [compound 446, 3-cyclobutyl-4-[(3S,4S)-3,4-dihydroxypyrrolidin-1-yl]-1-phenyl-1H-pyrazolo[3,4-b]pyridine-6-carboxylic acid] | 171.35% | 3.34 µM | 20.695% | > 10 µM |  | 
CN1[C@@H]2CC[C@H]1C[C@@H](Oc1cc(C(=O)O)nc3c1c(C1CCC1)nn3-c1ccccc1)C2 [compound 621, 3-cyclobutyl-4-{[(3-endo)-8-methyl-8-azabicyclo[3.2.1]octan-3-yl]oxy}-1-phenyl-1H-pyrazolo[3,4-b]pyridine-6-carboxylic acid] | 294.75% | 3.14 µM | 89.46% | 3.33 µM |  | 
Cc1nn(-c2ccccc2)c2nc(C(=O)O)cc(N3CC4(CCCOC4)C3)c12 [compound 308, 3-methyl-4-(6-oxa-2-azaspiro[3.5]nonan-2-yl)-1-phenyl-1H-pyrazolo[3,4-b]pyridine-6-carboxylic acid] | 221.85% | 2.51 µM |  |  | 59.78% | 2.51 µM
CC(C)(C)OC(=O)N1CCCC1c1nn(-c2ccccc2)c2nc(C(=O)O)cc(-c3ccc(N4CCOCC4)nc3)c12 (centres unmarked) [compound 103, 3-[1-(tert-butoxycarbonyl)pyrrolidin-2-yl]-4-[6-(morpholin-4-yl)pyridin-3-yl]-1-phenyl-1H-pyrazolo[3,4-b]pyridine-6-carboxylic acid] | 302% | 0.694 µM |  |  | 115.65% | 0.703 µM
CN(C)C[C@H](F)C1CCN(c2cc(C(=O)O)nc3c2c(C2CCC2)nn3-c2ccccc2)CC1 [compound 455, 3-cyclobutyl-4-{4-[(1R)-2-(dimethylamino)-1-fluoroethyl]piperidin-1-yl}-1-phenyl-1H-pyrazolo[3,4-b]pyridine-6-carboxylic acid] | 421.5% | 0.452 µM | 288.4% | 1.11 µM |  | 
O=C(O)c1cc(N2CCCCCC2)c2c(C3CCC3)nn(-c3ccccc3)c2n1 [compound 473, 4-(azepan-1-yl)-3-cyclobutyl-1-phenyl-1H-pyrazolo[3,4-b]pyridine-6-carboxylic acid] | 280.9% | 0.545 µM | 102.9% | 1.02 µM |  | 
CC(C)c1nn(C2CCCCC2)c2nc(C(=O)O)cc(-c3cccn3C)c12 [compound 362, 1-cyclohexyl-4-(1-methyl-1H-pyrrol-2-yl)-3-(propan-2-yl)-1H-pyrazolo[3,4-b]pyridine-6-carboxylic acid] | 170.85% | 1.8 µM |  |  | 44.405% | 2.03 µM
